{"source": "patent US9328374B2", "about": "“Selective culture medium and method for detecting carbapenem-resistant bacteria in a test sample” (Institut National de la Sante et de la Recherche Medicale …, priority 2011, dated 2016)", "key": {"E. coli": {"test_system": "E. coli", "experiment": "MIC of imipenem, ertapenem and meropenem", "format": "cell-based, Escherichia coli", "conditions": "Escherichia coli, read-out: MIC"}, "P. mirabilis": {"test_system": "P. mirabilis", "experiment": "MIC of imipenem, ertapenem and meropenem", "format": "cell-based"}, "P. stuartii": {"test_system": "P. stuartii", "experiment": "MIC of imipenem, ertapenem and meropenem", "format": "cell-based, Providencia stuartii"}, "E. cloacae": {"test_system": "E. cloacae", "experiment": "MIC of imipenem, ertapenem and meropenem", "format": "cell-based, Enterobacter cloacae", "conditions": "Enterobacter cloacae, read-out: MIC"}, "enterobacterial isolates": {"test_system": "enterobacterial isolates", "experiment": "MIC of imipenem, ertapenem and meropenem (groups of isolates, other species)", "format": "cell-based, Enterobacteriaceae"}}, "note": "Where two headings read alike, the source gives them in different places."}
{"smiles": "C[C@@H](O)[C@H]1C(=O)N2C(C(=O)O)=C(S[C@@H]3CN[C@H](C(=O)Nc4cccc(C(=O)O)c4)C3)[C@H](C)[C@H]12", "note": "[ETP, ertapenem]", "values": [{"measurement": "MIC", "setting": "E. coli; E. coli RIC, NDM-1 + CMY-16 + OXA-1 + OXA-10", "value": 3, "unit": "µg/mL"}, {"measurement": "MIC", "setting": "E. coli; E. coli ROB (OXA-48)", "value": 0.75, "unit": "µg/mL"}, {"measurement": "MIC", "setting": "E. coli; E. coli ROB, OXA-48", "value": 0.75, "unit": "µg/mL"}, {"measurement": "MIC", "setting": "E. coli; E. coli SYD, CMY-2, non-carbapenemase producer", "value": 0.012, "unit": "µg/mL"}, {"measurement": "MIC", "setting": "E. coli; E. coli TWA, IMP-8 + SHV-12", "value": 8, "unit": "µg/mL"}, {"measurement": "MIC", "setting": "E. coli; E. coli ZAN, OXA-48 + TEM-1 + CTX-M-14", "value": 8, "unit": "µg/mL"}, {"measurement": "MIC", "setting": "E. coli; strain E. coli 1008, TEM-1 + CTX-M-1, non-carbapenemase producer", "value": 0.016, "unit": "µg/mL"}, {"measurement": "MIC", "setting": "E. coli; strain E. coli 1034, TEM-1 + SHV-38, non-carbapenemase producer", "value": 0.006, "unit": "µg/mL"}, {"measurement": "MIC", "setting": "E. coli; strain E. coli 1048, TEM-1 + SHV-2a, non-carbapenemase producer", "value": 0.012, "unit": "µg/mL"}, {"measurement": "MIC", "setting": "E. coli; strain E. coli 10121, CTX-M-2, non-carbapenemase producer", "value": 0.016, "unit": "µg/mL"}, {"measurement": "MIC", "setting": "E. coli; strain E. coli AME, OXA-48 + CTX-M-24", "value": 0.5, "unit": "µg/mL"}, {"measurement": "MIC", "setting": "E. coli; strain E. coli BON, OXA-48 + TEM-1 + CTX-M-24", "value": 0.5, "unit": "µg/mL"}, {"measurement": "MIC", "setting": "P. mirabilis; P. mirabilis PMA (ACC-1)", "value": 0.094, "unit": "µg/mL"}, {"measurement": "MIC", "setting": "P. mirabilis; Proteus mirabilis, P. mirabilis 1031 (CTX-M-14 + TEM-1 + SHV-11), read-out: MIC", "value": 0.047, "unit": "µg/mL"}, {"measurement": "MIC", "setting": "P. mirabilis; Proteus mirabilis, P. mirabilis 1031, CTX-M-14 + TEM-1 + SHV-11, non-carbapenemase producer, read-out: MIC", "value": 0.047, "unit": "µg/mL"}, {"measurement": "MIC", "setting": "P. mirabilis; Proteus mirabilis, P. mirabilis PMA (ACC-1), read-out: MIC", "value": 0.12, "unit": "µg/mL"}, {"measurement": "MIC", "setting": "P. mirabilis; Proteus mirabilis, P. mirabilis PMA, ACC-1, non-carbapenemase producer, read-out: MIC", "value": 0.094, "unit": "µg/mL"}, {"measurement": "MIC", "setting": "P. stuartii; P. stuartii PS1 (NDM-1 + CMY-6 + OXA-1)", "value": 0.38, "unit": "µg/mL"}, {"measurement": "MIC", "setting": "P. stuartii; P. stuartii PS1, NDM-1 + CMY-6 + OXA-1", "value": 0.38, "unit": "µg/mL"}, {"measurement": "MIC", "setting": "P. stuartii; Providencia stuartii, P. stuartii NDM (NDM-1 + OXA-1 + CMY-6), read-out: MIC", "value": 0.38, "unit": "µg/mL"}, {"measurement": "MIC", "setting": "P. stuartii; strain P. stuartii PS1, NDM-1 + CMY-6 + OXA-1", "value": 0.38, "unit": "µg/mL"}, {"measurement": "MIC", "setting": "E. cloacae; E. cloacae 501, OXA-48 + TEM-1 + CTX-M-15", "value": 16, "unit": "µg/mL"}, {"measurement": "MIC", "setting": "E. cloacae; E. cloacae 1012, TEM-1 + SHV-12, non-carbapenemase producer", "value": 0.016, "unit": "µg/mL"}, {"measurement": "MIC", "setting": "E. cloacae; E. cloacae 1027, TEM-1 + CTX-M-15, non-carbapenemase producer", "value": 0.016, "unit": "µg/mL"}, {"measurement": "MIC", "setting": "E. cloacae; E. cloacae 5434 (wild type)", "value": 0.016, "unit": "µg/mL"}, {"measurement": "MIC", "setting": "E. cloacae; E. cloacae 5434, (wild type), non-carbapenemase producer", "value": 0.016, "unit": "µg/mL"}, {"measurement": "MIC", "setting": "E. cloacae; E. cloacae 7725, (wild type), non-carbapenemase producer", "value": 0.008, "unit": "µg/mL"}, {"measurement": "MIC", "setting": "E. cloacae; E. cloacae 7746, (wild type), non-carbapenemase producer", "value": 0.064, "unit": "µg/mL"}, {"measurement": "MIC", "setting": "E. cloacae; E. cloacae 10111 (TEM-1 + CTX-M-15)", "value": 0.75, "unit": "µg/mL"}, {"measurement": "MIC", "setting": "E. cloacae; E. cloacae 1008029, VIM-1+ CTX-M-3", "value": "> 32", "unit": "µg/mL"}, {"measurement": "MIC", "setting": "E. cloacae; E. cloacae 1008079, IMP-1", "value": "> 32", "unit": "µg/mL"}, {"measurement": "MIC", "setting": "E. cloacae; E. cloacae 1008187, IMP-1 + CTX-M-15", "value": "> 32", "unit": "µg/mL"}, {"measurement": "MIC", "setting": "E. cloacae; E. cloacae (KPC-2)", "value": 6, "unit": "µg/mL"}, {"measurement": "MIC", "setting": "E. cloacae; E. cloacae BEU, OXA-48 + TEM-1 + CTX-M-15 + SHV-12", "value": 8, "unit": "µg/mL"}, {"measurement": "MIC", "setting": "E. cloacae; E. cloacae CFVL, KPC-2 + TEM-3", "value": 2, "unit": "µg/mL"}, {"measurement": "MIC", "setting": "E. cloacae; E. cloacae CLO (CTX-M-15)", "value": 0.12, "unit": "µg/mL"}, {"measurement": "MIC", "setting": "E. cloacae; E. cloacae CLO, CTX-M-15, non-carbapenemase producer", "value": 0.12, "unit": "µg/mL"}, {"measurement": "MIC", "setting": "E. cloacae; E. cloacae CVB (VEB-1)", "value": 0.12, "unit": "µg/mL"}, {"measurement": "MIC", "setting": "E. cloacae; E. cloacae CVB, VEB-1, non-carbapenemase producer", "value": 0.12, "unit": "µg/mL"}, {"measurement": "MIC", "setting": "E. cloacae; E. cloacae HMG, KPC-2 + TEM-1", "value": "> 32", "unit": "µg/mL"}, {"measurement": "MIC", "setting": "E. cloacae; E. cloacae HPTU (KPC-2 + TEM-1 + SHV-11)", "value": 4, "unit": "µg/mL"}, {"measurement": "MIC", "setting": "E. cloacae; E. cloacae HPTU, KPC-2 + TEM-1 + SHV-11", "value": 4, "unit": "µg/mL"}, {"measurement": "MIC", "setting": "E. cloacae; E. cloacae IR38 (NDM-1 + CTX-M-15)", "value": 16, "unit": "µg/mL"}, {"measurement": "MIC", "setting": "E. cloacae; E. cloacae IR38, NDM-1 + CTX-M-15", "value": 16, "unit": "µg/mL"}, {"measurement": "MIC", "setting": "E. cloacae; E. cloacae KAR, VIM-1+ SHV-70", "value": 0.38, "unit": "µg/mL"}, {"measurement": "MIC", "setting": "E. cloacae; E. cloacae TAW (IMP-8 + SHV-12)", "value": 0.5, "unit": "µg/mL"}, {"measurement": "MIC", "setting": "E. cloacae; E. cloacae TAW, IMP-8 + SHV-12", "value": 0.5, "unit": "µg/mL"}, {"measurement": "MIC", "setting": "E. cloacae; E. cloacae TUR (OXA-48 + SHV-5)", "value": 0.5, "unit": "µg/mL"}, {"measurement": "MIC", "setting": "E. cloacae; E. cloacae TUR, OXA-48 + SHV-5", "value": 0.5, "unit": "µg/mL"}, {"measurement": "MIC", "setting": "E. cloacae; E. cloacae TWA, IMP-8", "value": 1, "unit": "µg/mL"}, {"measurement": "MIC", "setting": "E. cloacae; strain E. cloacae 10111, TEM-1 + CTX-M-15, non-carbapenemase producer", "value": 0.75, "unit": "µg/mL"}, {"measurement": "MIC", "setting": "E. cloacae; strain E. cloacae CLO, CTX-M-15, non-carbapenemase producer", "value": 0.12, "unit": "µg/mL"}, {"measurement": "MIC", "setting": "E. cloacae; strain E. cloacae CVB, VEB-1, non-carbapenemase producer", "value": 0.12, "unit": "µg/mL"}, {"measurement": "MIC", "setting": "E. cloacae; strain E. cloacae HPTU, KPC-2 + TEM-1 + SHV-11", "value": 4, "unit": "µg/mL"}, {"measurement": "MIC", "setting": "E. cloacae; strain E. cloacae TAW, IMP-8 + SHV-12", "value": 0.5, "unit": "µg/mL"}, {"measurement": "MIC", "setting": "E. cloacae; strain E. cloacae TUR, OXA-48 + SHV-5", "value": 0.5, "unit": "µg/mL"}, {"measurement": "MIC", "setting": "enterobacterial isolates; Example 3, 19 isolates (1 Citrobacter freundii, 2 E. coli, 4 E. cloacae, 12 K. pneumoniae) with porin defect, read-out: MIC values of ertapenem of ertapenem non-susceptible isolates", "value": "> 0.25", "unit": "µg/mL"}, {"measurement": "MIC", "setting": "enterobacterial isolates; S. marcescens 0911033, IMP-1", "value": ">32", "unit": "µg/mL"}, {"measurement": "MIC", "setting": "enterobacterial isolates; S. marcescens 1008091, VIM-1+ CTX-M-15", "value": ">32", "unit": "µg/mL"}, {"measurement": "MIC", "setting": "enterobacterial isolates; S. marcescens C7052, KPC-2 + TEM-1 + SHV-12", "value": ">32", "unit": "µg/mL"}, {"measurement": "MIC", "setting": "enterobacterial isolates; Serratia marcescens, S. marcescens D6403, KPC-2 + TEM-1, read-out: MIC", "value": "> 32", "unit": "µg/mL"}]}
